Results reported in patent US9533937B2, “Use of metal scavengers for removal of ruthenium residues” (Apeiron Synthesis S.A., priority 2013, dated 2017).

Assay: Solubility in solvents
Format: physicochemical

Structure (SMILES): [C-]#[N+]CC(=O)[O-].[K+] [CNCH2CO2K]
- solubility in solvents: well soluble only in very polar solvents such as water and alcohols
